Test results as given in article PMC3745005 (Journal of biomolecular screening, 2012).

Molecular target: PDE4A (catalytic domain of PDE4A10) (Homo sapiens, UniProt P27815)
Assay: enthalpy array nanocalorimetry, cAMP hydrolysis
Assay type: biochemical

PDE4A (catalytic domain of PDE4A10), sequence (P27815 351-683): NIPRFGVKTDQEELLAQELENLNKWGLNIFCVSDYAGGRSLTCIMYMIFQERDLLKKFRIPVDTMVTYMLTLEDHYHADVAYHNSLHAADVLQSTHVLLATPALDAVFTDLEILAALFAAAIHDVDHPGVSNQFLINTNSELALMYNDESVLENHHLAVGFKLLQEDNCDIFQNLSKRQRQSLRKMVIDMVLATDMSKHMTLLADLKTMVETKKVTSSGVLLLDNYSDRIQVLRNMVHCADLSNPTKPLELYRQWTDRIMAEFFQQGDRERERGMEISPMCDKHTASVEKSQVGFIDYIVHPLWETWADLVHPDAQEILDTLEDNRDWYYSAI

CC(C)Cn1c(=O)n(C)c(=O)c2[nH]cnc21 [IBMX]
Ki: 8.3 ± 1.5 µM
